{"source": "patent EP1432446B1", "about": "“METHODS FOR THE IDENTIFICATION OF POLYPEPTIDE ANTIGENS ASSOCIATED WITH DISORDERS INVOLVING ABERRANT CELL PROLIFERATION” (Genentech, Inc., priority 2001, dated 2003)", "origin": "cited, not measured here"}
{"compound": "COc1cc2cc(c1Cl)N(C)C(=O)C[C@H](OC(=O)[C@H](C)N(C)C(C)=O)[C@]1(C)O[C@H]1[C@H](C)[C@@H]1C[C@@](O)(NC(=O)O1)[C@H](OC)/C=C/C=C(\\C)C2", "note": "[maytansine, Maytansine]", "values": [{"measurement": "adverse effects in clinical trials", "setting": "clinical trials discontinued", "value": "serious adverse effects on the central nervous system and gastrointestinal system"}, {"measurement": "associated toxicity", "setting": "in vivo", "value": "peripheral neuropathy"}]}
